Measurements as given in patent publication US20070098649A1, “Method and composition for controlling oral pathogens” (priority 2004, published 2007).
Where two headings read alike, the source gives them in different places. Marks after values point to notes of the source that are not given here.

Columns and labels:
wild type S. aureus = settings: cited from earlier work
[1] = rats; oral; tritiated; cited from earlier work
A. actinomycetemcomitans [2] = test: Accumulation of berberine, fluorimetric assay; assay type: cell-based; settings: CCCP 100 μM added five minutes after berberine; FIG. 1
Description: Accumulation of berberine in A. actinomycetemcomitans was evaluated using a fluorimetric assay (based in Giraud et al., 2000). Overnight cells were harvested as previously described, washed twice with 50 mM sodium phosphate buffer (pH 7), resuspended in the same buffer at a concentration of 1×10^9 CFU ml^−1. The cells were equilibrated for 10 minutes at 37° C. Berberine was added at a final concentration of 500 μg ml^−1. After addition of berberine, 0.5 ml samples were removed at different time intervals. Five minutes after the addition of berberine, the efflux pump inhibitor carbonyl cyanide m-chlorophenylhydrazone (CCCP) was added to the reaction mixture (final concentration 100 μM). The samples were immediately diluted with 1 ml ice-cold sodium phosphate buffer and then were centrifuged for 5 minutes at 560.0×g. The pellet was washed once with 1 ml ice-cold buffer and resuspended in 1 ml of 0.1 M glycine hydrochloride (pH 3) for at least 15 hours at room temperature. The fluorescence of the supernatant was measured (excitation 355 nm and emission 517 nm) with a spectrofluorimeter (Model 810/814, Photon Technology International, Monmouth Junction, N.J.).

S. mutans [3] = test: Growth on agar with berberine and/or methylene blue (efflux screen); assay type: cell-based
F. nucleatum [4] = test: Relative cell surface hydrophobicity (hexanes partition); assay type: cell-based
S. gordonii [5] = test: as above; assay type: cell-based
A. actinomycetemcomitans [6] = test: as above; assay type: cell-based
P. gingivalis = test: as above; assay type: cell-based
S. mutans [7] = test: Viability assessment (bactericidal activity); assay type: cell-based
Description: (§1) Two representative organisms, S. mutans and F. nucleatum, were used in this study. […] Aliquots of 4 ml of agent, prepared in sterile water, were placed into sterile test tubes and 1 ml of adjusted cells was added. The control consisted of 4 ml of PBS and 1 ml of cells. Samples were removed at 0, 15, 30, and 60 minutes, serial dilutions were performed, and the appropriate dilutions plated out. The plates were incubated at 37° C. under appropriate atmospheric conditions for up to 72 hours. Viable colony counts were determined and compared to nontreated control Percentage kill was calculated using the formula: ([…]×100. Log reduction was also calculated on Log10 transformed data. Effect of Berberine on Cell Surface Hydrophobicity

F. nucleatum [8] = test: Viability assessment (bactericidal activity); assay type: cell-based
Description: as §1

S. gordonii [9] = test: Growth on agar with berberine and/or methylene blue (efflux screen); assay type: cell-based
S. mutans [10] = test: Relative cell surface hydrophobicity (hexanes partition); assay type: cell-based
Escherichia coli [11] = test: MIC microdilution assay; assay type: cell-based; settings: E. coli, agent alone, read-out: MIC of the antimicrobial agents alone
oral pathogens = test: Combination determination, statements on the oral pathogens; assay type: cell-based; settings: berberine hydrochloride / berberine (B-CG and B-S)
Description: (§2) The alkaloids were tested in pair-wise combinations (fractional inhibitory concentrations, FIC) against all the bacteria to determine whether interactions were antagonistic (FIC>1), additive (0.5<FIC<1), or synergistic (FIC<0.5). The FIC was calculated by the following: (MIC Acombination/MIC Aalone)+(MIC Bcombination/MIC Balone). Where A represents compound 1 and B represents compound 2. […] In the case of A. actinomycetemcomitans and P. aeruginosa, CHX was used at 0.78 to 50 μg ml^−1. Berberine (B-CG and B-S) was used at concentrations 0.9 to 250 μg ml^−1. The antibacterial efficacy of berberine (1.95 to 500 μg ml^−1) was tested in combination against P. aeruginosa with CHX (0.78 to 50 μg ml^−1) (Sigma Chemicals) and the polymyxin antibiotic Col (0.04 to 25 μg ml^−1) (Sigma Chemicals). The plates were incubated for 24 hours.

Fusobacterium nucleatum [12] = test: MIC microdilution assay; assay type: cell-based; settings: Fusobacterium nucleatum, F. nucleatum
Streptococcus mutans [13] = test: MIC microdilution assay; assay type: cell-based; settings: Streptococcus mutans, S. mutans
Porphymonas gingivalis [14] = test: MIC microdilution assay; assay type: cell-based; settings: Porphyromonas gingivalis, P. gingivalis
Escherichia coli [15] = test: Combination determination (FIC, MIC in combination); assay type: cell-based; settings: E. coli
Description: as §2

[16] = tested on: Actinobacillus actinomycetemcomitans; test: as above; assay type: cell-based; settings: A. actinomycetemcomitans grown under anaerobic conditions; berberine (B-CG) combined with CHX, Tet or Dox; MIC of the named agent in the combination
Description: as §2

Streptococcus gordonii [17] = test: as above; assay type: cell-based; settings: S. gordonii
Description: as §2

Porphymonas gingivalis [18] = test: as above; assay type: cell-based; settings: P. gingivalis
Description: as §2

Pseudomonas aeruginosa [19] = test: as above; assay type: cell-based; settings: P. aeruginosa
Description: as §2

Fusobacterium nucleatum [20] = test: as above; assay type: cell-based; settings: F. nucleatum
Description: as §2

Staphylococcus aureus [21] = test: as above; assay type: cell-based; settings: S. aureus
Description: as §2

Streptococcus gordonii [22] = test: MIC microdilution assay; assay type: cell-based; settings: Streptococcus gordonii, S. gordonii
Pseudomonas aeruginosa [23] = test: MIC microdilution assay; assay type: cell-based; settings: Pseudomonas aeruginosa; P. aeruginosa; agent alone; read-out: MIC of the antimicrobial agents alone
Streptococcus mutans [24] = test: Combination determination (FIC, MIC in combination); assay type: cell-based; settings: S. mutans
Description: as §2
CHX was diluted from left to right at 10 to 0.08 μg ml^−1 ([…] 1 to 8), berberine was diluted from top to bottom at 250 to 0.09 μg ml^−1 ([…] 1 to 8). Column 9 was the cell control, column 10 was berberine alone (250 to 0.09 μg ml^−1); and column 11 was CHX alone (10 to 0.08 μg ml^−1). Row H was the solvent control (8% DMSO, H1 to H8). Column 12 was the media blank. The dilution assay was designed such that A1 contained the highest concentration of both agents (berberine 250 μg ml^−1 and CHX 10 μg ml^−1). The final concentration of berberine in wells A2 to A8 was […]. The FIC value was calculated from well C6. FIC was calculated by: (MIC Acombination/MIC Aalone)+(MIC Bcombination/MIC Balone).

[25] = tested on: Actinobacillus actinomycetemcomitans; test: MIC microdilution assay; assay type: cell-based; settings: Aggregatibacter actinomycetemcomitans
Staphylococcus aureus [26] = test: MIC microdilution assay; assay type: cell-based; settings: S. aureus, agent alone, read-out: MIC of the antimicrobial agents alone
test bacteria = test: Relative cell surface hydrophobicity, statements on the test bacteria; assay type: cell-based; settings: summary of Table 12
[27] = agar with 62.5, 125, 250 μg ml^−1, 48 hours at 37° C.
[28] = agent alone, read-out: MIC of the antimicrobial agents alone
[29] = berberine (B-CG) combined with CHX, Tet or Dox, MIC of the named agent in the combination
[30] = berberine hydrochloride / chloride

## COC(=O)[C@H]1[C@H]2C[C@@H]3c4[nH]c5cc(OC)ccc5c4CCN3C[C@H]2C[C@@H](OC(=O)c2cc(OC)c(OC)c(OC)c2)[C@@H]1OC [reserpine]
Wild type S. aureus
  Inhibition of the efflux of norfloxacin: at least four

## COc1ccc2cc3[n+](cc2c1OC)CCc1cc2c(cc1-3)OCO2 [berberine chloride]
[1]
  Excretion after 48 hours: majority of the administered dose had been excreted in feces
  Time of peak levels in liver and muscles: 12 h

## N#CC(C#N)=NNc1cccc(Cl)c1 [CCCP, carbonyl cyanide m-chlorophenylhydrazone]
A. actinomycetemcomitans [2]
  Effect on berberine accumulation: very rapid and marked increase in berberine accumulation

## COc1ccc2cc3[n+](cc2c1OC)CCc1cc2c(cc1-3)OCO2 [B-CG, berberine chloride]
S. mutans [3]; [27]
  Concentration of B-CG in agar at which growth occurred: 62.5 µg/mL
F. nucleatum [4]; berberine 500 μg ml^−1
  Typical reduction scores on relative cell surface hydrophobicity: 29.9%
S. gordonii [5]; berberine 500 μg ml^−1
  Typical reduction scores on relative cell surface hydrophobicity: 26.1%
A. actinomycetemcomitans [6]; berberine 500 μg ml^−1
  Typical reduction scores on relative cell surface hydrophobicity: −31.6%
P. gingivalis; berberine 500 μg ml^−1
  Typical reduction scores on relative cell surface hydrophobicity: 26.7%
S. mutans [7]; B-CG (500) μg ml^−1
  Viability after 60 min exposure (mean Log10 reduction of CFU): 0 Log10
S. mutans [7]; B-CG (1000) μg ml^−1
  Viability after 60 min exposure (mean Log10 reduction of CFU): 1 Log10
F. nucleatum [8]; B-CG (500) μg ml^−1
  Viability after 60 min exposure (mean Log10 reduction of CFU): 2.77 Log10
F. nucleatum [8]; B-CG (1000) μg ml^−1
  Viability after 60 min exposure (mean Log10 reduction of CFU): 3.22 Log10
S. gordonii [9]; [27]
  Concentration of B-CG in agar at which growth occurred: 62.5 µg/mL
S. mutans [10]; berberine 500 μg ml^−1
  Typical reduction scores on relative cell surface hydrophobicity: 14.8%

## [H]/N=C(\N/C(=N/[H])NCCCCCCNC(=N)NC(=N)Nc1ccc(Cl)cc1)Nc1ccc(Cl)cc1 [CHX, chlorhexidine gluconate]
F. nucleatum [4]; agent alone 5 μg ml^−1
  Typical reduction scores on relative cell surface hydrophobicity: 3.7%
Escherichia coli [11]
  MIC: 1.25 µg/mL
Oral pathogens
  Growth inhibition effect when combined with berberine: synergistic
S. gordonii [5]; agent alone 5 μg ml^−1
  Typical reduction scores on relative cell surface hydrophobicity: −6.3%
Fusobacterium nucleatum [12]; [28]
  MIC: 2.5 µg/mL
Fusobacterium nucleatum [12]; Fn, read-out: MIC of Goldenseal Alkaloids Against Selected Oral Pathogens
  MIC: 2.5 µg/mL
Streptococcus mutans [13]; [28]
  MIC: 1.25 µg/mL
Streptococcus mutans [13]; Sm, read-out: MIC of Goldenseal Alkaloids Against Selected Oral Pathogens
  MIC: 1.25 µg/mL
A. actinomycetemcomitans [6]; agent alone 5 μg ml^−1
  Typical reduction scores on relative cell surface hydrophobicity: −2.6%
Porphymonas gingivalis [14]; [28]
  MIC: 1.25 µg/mL
Porphymonas gingivalis [14]; Pg, read-out: MIC of Goldenseal Alkaloids Against Selected Oral Pathogens
  MIC: 2.5 µg/mL
P. gingivalis; agent alone 5 μg ml^−1
  Typical reduction scores on relative cell surface hydrophobicity: −2.7%
Escherichia coli [15]; [29]
  MIC of the antimicrobial agents in combination: 0.63 µg/mL
Escherichia coli [15]; [30]
  Growth inhibition effect when combined with berberine: synergistic
Escherichia coli [15]; fraction of the amount alone
  Approximate amount of antibiotic required when combined with berberine relative to when the agent is used alone: ½
[16]
  MIC of the antimicrobial agents in combination: 50 µg/mL
Streptococcus gordonii [17]; [29]
  MIC of the antimicrobial agents in combination: 0.63 µg/mL
Streptococcus gordonii [17]; fraction of the amount alone
  Approximate amount of antibiotic required when combined with berberine relative to when the agent is used alone: <½
Porphymonas gingivalis [18]; [29]
  MIC of the antimicrobial agents in combination: 0.08 µg/mL
Porphymonas gingivalis [18]; fraction of the amount alone
  Approximate amount of antibiotic required when combined with berberine relative to when the agent is used alone: <½
Pseudomonas aeruginosa [19]
  Interaction when combined with berberine: no clear additive or synergistic effect
Pseudomonas aeruginosa [19]; berberine combined with CHX or Col, MIC of the named agent in the combination
  MIC of the antimicrobial agents in combination: 3.13** μg ml^−1
Fusobacterium nucleatum [20]; [29]
  MIC of the antimicrobial agents in combination: 0.31 µg/mL
Fusobacterium nucleatum [20]; fraction of the amount alone
  Approximate amount of antibiotic required when combined with berberine relative to when the agent is used alone: <½
Staphylococcus aureus [21]; [29]
  MIC of the antimicrobial agents in combination: 0.63 µg/mL
Staphylococcus aureus [21]; [30]
  Growth inhibition effect when combined with berberine: synergistic
Staphylococcus aureus [21]; fraction of the amount alone
  Approximate amount of antibiotic required when combined with berberine relative to when the agent is used alone: ½
Streptococcus gordonii [22]; [28]
  MIC: 5 µg/mL
Streptococcus gordonii [22]; Sg, read-out: MIC of Goldenseal Alkaloids Against Selected Oral Pathogens
  MIC: 5 µg/mL
Pseudomonas aeruginosa [23]
  MIC: 6.25 µg/mL
Streptococcus mutans [24]; [29]
  MIC of the antimicrobial agents in combination: 0.04 µg/mL
Streptococcus mutans [24]; fraction of the amount alone
  Approximate amount of antibiotic required when combined with berberine relative to when the agent is used alone: <½
Streptococcus mutans [24]; same plate, 48 h
  MIC alone used for the FIC: 1.25 µg/mL
Streptococcus mutans [24]; well C6, berberine (B-G) with CHX, 48 h
  MIC in combination used for the FIC: 0.3125 µg/mL
[25]; A. actinomycetemcomitans grown under anaerobic conditions, agent alone, read-out: MIC of the antimicrobial agents alone
  MIC: 50 µg/mL
[25]; Aa, A. actinomycetemcomitans, read-out: MIC of Goldenseal Alkaloids Against Selected Oral Pathogens
  MIC: 50 µg/mL
S. mutans [7]; CHX (20) μg ml^−1
  Viability after 60 min exposure (mean Log10 reduction of CFU): 1.69 Log10
F. nucleatum [8]; CHX (20)
  Viability after 60 min exposure (mean Log10 reduction of CFU): 3.09* Log10
Staphylococcus aureus [26]
  MIC: 2.5 µg/mL
Test bacteria
  Effect on the relative hydrophobicity of the cells: did not appear to affect
S. mutans [10]; agent alone 5 μg ml^−1
  Typical reduction scores on relative cell surface hydrophobicity: 5.1%

## CN(C)c1ccc2nc3ccc(=[N+](C)C)cc-3sc2c1 [methylene blue (MB), methylene blue]
S. mutans [3]; 50 μg/ml
  Growth on agar in the presence of methylene blue: did not grow
S. gordonii [9]; 50 μg/ml
  Growth on agar in the presence of methylene blue: did not grow
